Laboratory results published in USRE48335E1, “Polymyxin derivatives as antimicrobial compounds” (priority 2014, dated 2020).
Values after ≈ are worked out from the molar mass of the structure shown. Positions of bridges follow the written chain, without caps; N, C: chain ends. Non-standard residues stand in square brackets, D forms with d. Residues, ends and D or L forms follow the SMILES beside them. *: point of attachment. Nonanoyl = CCCCCCCCC(=O)*; Heptanoyl = CCCCCCC(=O)*; Octanoyl = CCCCCCCC(=O)*; Dab = NCC[C@H](N)C(=O)O; Dap = NC[C@H](N)C(=O)O; Aib = CC(C)(N)C(=O)O

Tests used:
Acinetobacter baumannii = test system: Acinetobacter baumannii
Method: (§1) MICs of the lipopeptides (trifluoroacetic acid salt, TFA) were determined by broth microdilution in cation-adjusted Mueller-Hinton broth (CAMHB) (Oxoid Australia, Thebarton, SA, Australia) according to Clinical and Laboratory Standards Institute standards (Clinical and Laboratory Standards Institute. Performance standards for antimicrobial susceptibility testing; eighteenth informational supplement M100-S18. Wayne, Pa., 2008). Polymyxin B (sulphate) was employed as control. […]

Enterobacter cloacae = test system: Enterobacter cloacae
Method: as §1

Pseudomonas aeruginosa = test system: Pseudomonas aeruginosa
Method: as §1

Structure (SMILES)	Minimum inhibitory concentration, Ab A ATCC 17978 (Acinetobacter baumannii) [µg/mL]	Minimum inhibitory concentration, Ab ATCC 19606 (Acinetobacter baumannii) [µg/mL]	Minimum inhibitory concentration, Ab FADDI-AB034 (Acinetobacter baumannii) [µg/mL]	Minimum inhibitory concentration, Ec FADDI-EC001 (Enterobacter cloacae) [µg/mL]	Minimum inhibitory concentration, Ec FADDI-EC003 (Enterobacter cloacae) [µg/mL]	Minimum inhibitory concentration, Ec FADDI-EC006 (Enterobacter cloacae) [µg/mL]	Minimum inhibitory concentration, Pa ATCC 27853 (Pseudomonas aeruginosa) [µg/mL]	Minimum inhibitory concentration, Pa FADDI-PA022 (Pseudomonas aeruginosa) [µg/mL]	Minimum inhibitory concentration, Pa FADDI-PA025 (Pseudomonas aeruginosa) [µg/mL]
CCCCCCC(=O)N[C@@H](CCN)C(=O)N[C@H](C(=O)N[C@@H](CCN)C(=O)N[C@H]1CCNC(=O)[C@H]([C@@H](C)O)NC(=O)[C@H](CCN)NC(=O)[C@H](CCN)NC(=O)[C@H]([C@@H](C)O)NC(=O)[C@@H](CC(C)C)NC(=O)[C@H](CCN)NC1=O)[C@@H](C)O [Compound 42] (Heptanoyl-[Dab]T[Dab][Dab][Dab][dL]T[Dab][Dab]T; lactam 4-C)	4 (≈ 3.54 µM)	4 (≈ 3.54 µM)	2 (≈ 1.77 µM)	<0.125	<0.125	0.25 (≈ 0.221 µM)	0.5 (≈ 0.443 µM)	2 (≈ 1.77 µM)	>32
CCCCCCCCC(=O)N[C@@H](CCN)C(=O)N[C@H](C(=O)N[C@@H](CCN)C(=O)N[C@H]1CCNC(=O)[C@H]([C@@H](C)O)NC(=O)[C@H](CCN)NC(=O)[C@H](CCN)NC(=O)[C@H]([C@@H](C)O)NC(=O)[C@@H](CC(C)C)NC(=O)[C@H](CCN)NC1=O)[C@@H](C)O [Compound 43] (Nonanoyl-[Dab]T[Dab][Dab][Dab][dL]T[Dab][Dab]T; lactam 4-C)	0.5 (≈ 0.432 µM)	0.5 (≈ 0.432 µM)	1 (≈ 0.864 µM)	0.25 (≈ 0.216 µM)	<0.125	0.5 (≈ 0.432 µM)	0.5 (≈ 0.432 µM)	1 (≈ 0.864 µM)	16 (≈ 13.8 µM)
CCCCCCC(=O)N[C@@H](CCN)C(=O)N[C@H](C(=O)N[C@@H](CN)C(=O)N[C@H]1CCNC(=O)[C@H]([C@@H](C)O)NC(=O)[C@H](CCN)NC(=O)[C@H](CCN)NC(=O)[C@H]([C@@H](C)O)NC(=O)[C@@H](CC(C)C)NC(=O)[C@H](CCN)NC1=O)[C@@H](C)O [Compound 44] (Heptanoyl-[Dab]T[Dap][Dab][Dab][dL]T[Dab][Dab]T; lactam 4-C)	1 (≈ 0.897 µM)	1 (≈ 0.897 µM)	1 (≈ 0.897 µM)	0.25 (≈ 0.224 µM)	<0.125	<0.125	0.5 (≈ 0.448 µM)	1 (≈ 0.897 µM)	16 (≈ 14.3 µM)
CCCCCCCC(=O)N[C@@H](CCN)C(=O)N[C@H](C(=O)N[C@@H](CN)C(=O)N[C@H]1CCNC(=O)[C@H]([C@@H](C)O)NC(=O)[C@H](CCN)NC(=O)[C@H](CCN)NC(=O)C(C)(C)NC(=O)[C@@H](CC(C)C)NC(=O)[C@H](CCN)NC1=O)[C@@H](C)O [Compound 45] (Octanoyl-[Dab]T[Dap][Dab][Dab][dL][Aib][Dab][Dab]T; lactam 4-C)	4 (≈ 3.59 µM)	8 (≈ 7.19 µM)	2 (≈ 1.8 µM)	0.5 (≈ 0.449 µM)	0.25 (≈ 0.225 µM)	0.5 (≈ 0.449 µM)	0.5 (≈ 0.449 µM)	1 (≈ 0.898 µM)	16 (≈ 14.4 µM)
